The target of experiment [1] is T1, SUCNR1 (Mus musculus, UniProt Q99MT6).
T1 construct: endogenous in cells; host or cells: live mice; C57/B6 is stated for the periodontitis model, and no strain is stated for the LPS model
T1 sequence (Q99MT6 1-317): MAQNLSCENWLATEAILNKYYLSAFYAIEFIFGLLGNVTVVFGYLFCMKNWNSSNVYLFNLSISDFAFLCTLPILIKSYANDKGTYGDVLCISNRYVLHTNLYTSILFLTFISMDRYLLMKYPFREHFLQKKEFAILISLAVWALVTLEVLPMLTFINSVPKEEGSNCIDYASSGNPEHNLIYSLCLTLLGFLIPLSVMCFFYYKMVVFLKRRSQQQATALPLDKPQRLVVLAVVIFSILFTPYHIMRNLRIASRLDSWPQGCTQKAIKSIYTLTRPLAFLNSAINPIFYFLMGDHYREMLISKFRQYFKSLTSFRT
Nature of the experiment: Ligature plus F. nucleatum induced periodontitis in mice, topical 7a gel formulation (FIG. 11). In kind it is in vivo. The protocol:
FIG. 11. Targeting SUCNR1 suppressed periodontitis and neuroinflammation. A. Study design. Periodontitis was induced in 14-week-old mice with a 6-0 silk ligature (Roboz Surgical Instrument Co., MD, USA) around the maxillary right side second molar. The ligature were kept in place for 5 days before removal. Sterile swabs soaked in 100 μl of 2.5×10^9/ml F. nucleatum in PBS and inoculated into mice around the ligature affected gingival tissues for 30 seconds. Inoculations were performed twice a week for four weeks. Mice were randomly assigned to receive 3 μl vehicle or 7a gel formulation every other day by topical application. B. Representative μCT images; C. The distance between CEJ to alveolar bone crest. D. IL-1β mRNA levels in the gingivae around the ligature site. E. Serum IL-1β levels. *p<0.05, ** p<0.01, *** p<0.001).
A novel mechanism connecting chronic peripheral inflammation and neuroinflammation. […] Inflammation was induced in 14-week-old C57/B6 mice by placing a ligature on the 2nd maxillary molar for 5-days plus twice/week inoculations of a key periodontal pathogen Fusobacteria nucleatum (Fn) for 4-weeks (FIG. 1A). […] This local inflammation was accompanied with the induction of neuroinflammation evidenced by the activation of microglia (FIG. 1D) and increased IL1β levels in hippocampus, cortex and cerebellum (FIG. 1E-G).
Six in situ gel formulations (ISGs) were produced by varying polymer concentration, changing the hydrophobicity of the solvent system, and use of different plasticizers (such as PEG200). All these ISGs were analyzed by FT-IR/ATR and HPLC assay for drug-polymer compatibility. In vitro drug release experiments were performed to assess the profile of sustained release with controlled initial burst release. One gel formulation was chosen to treat periodontitis animals in-vivo at 1 μg/10 g body weight three times/week (FIG. 11).
To determine if succinate receptor 1 inhibitors could reduce inflammation, succinate receptor 1 inhibitors were administered to mice. In this study (FIG. 11), mice with periodontal disease were used because of the resulting neuroinflammation from the periodontal disease. Topical application of POC7a gel formulation was administered at 1 μg/10 g body weight three times/week.

Experiment [2] has as its target T1, SUCNR1. The experiment is described as follows: LPS-induced neuroinflammation in mice, oral gavage of 7a (FIG. 16). In kind it is in vivo. Particulars: LPS-treated mice. On the procedure:
FIG. 16. […] A. Experimental design and treatment regime. 12-week-old male mice were randomly divided into 3 groups to receive inflammation induction (LPS) and treatment (7a) at indicated timepoints. PBS was used as the control solution to LPS and 20% DMSO in PBS (vehicle) was used as the control solution to 7a. The RNA samples were collected in TRIZol and extracted after perfusion. TNFα and IL1β mRNA levels were measured by Realtime PCR using specific primers and normalized to β-actin. B. Cerebellum, C. Hippocampus and D. Cortex. (* p<0.05. ** p<0.005, *** p<0.0005, **** p<0.0001 One-way ANOVA with post-hoc Tukey test).
Targeting SUCNR1 with topical 7a application reduced periodontitis as well as the associated neuroinflammation in mice. […] Thus, mice were pretreated 7a or vehicle through oral gavage 30 minutes before giving LPS intraperitoneally to induce neuroinflammation. The administration of 7a at 8 hours and 16 hours was repeated after the first dose. The mouse blood samples were collected through cardiac puncture at 24 hours (FIG. 16A). Immediately afterward, PBS was used to perfuse the mice to minimize the impact of blood cells to the gene expression of the brain tissues. The brain tissue samples were collected and the cerebellum, hippocampus, and cortex were micro-dissected and processed for RNA extraction and gene expression analysis.
The 7a solution was prepared as follows. 100 mM 7a stock solution was prepared using DMSO. Then the 7a stock solution was further diluted with PBS to become 20 mM 7a working solution and used for oral gavage to mice. DMSO in PBS (at 20% v/v) was used as vehicle. Based on the animals' body weight, 25 gram mice will receive 100 μL gavage volume) 7a working solution or vehicle. The treatment dose of 7a is 80 μmol/kg.

For experiment [3] the following is noted: mice; succinate IP daily (4 mM/kg) for 4 weeks vs PBS. On the procedure:
FIG. 3. […] Mice received daily intraperitoneal (IP) injection with PBS or Succinate (4 mM/kg) for 4 weeks before sample collection. […] B. Alpha Diversity measured by the Observed number of ASVs, and Phylogenetic diversity index for oral swab samples. C. […] D. Network plot generated in Cytoscape 3.8.2. The small gray dots represent ASVs, the white circles represent WT samples, the yellow triangles represent WT_Suc samples. Edges represent the interaction of sample and ASV are colored based on sample type.

Experiment [4] concerns Fusobacterium nucleatum. On the procedure:
FIG. 5. Fusobacterium nucleatum growth and virulence gene expression. A. F. nucleatum growth in media supplemented with indicated succinate concentrations shown as optical density measures over time (n=3, SEM). Different letters indicate statistically different from one another (ANOVA, p<0.05 by post-hoc Tukey's). B Relative expressions of virulence genes of F. nuleactum in 100 uM of succinate as determine by RT-PCR. (mean±SEM. ** p<0.01, * p<0.05).

The mark [5] stands for this setting: mice with periodontitis, topical gel.
[6] abbreviates: 7a oral gavage 80 μmol/kg, 3 doses, mRNA at 24 hours.

We go through 2 compounds from patent US20230293504A1, “TARGETING SUCNR1 TO REDUCE NEUROINFLAMMATION” (New York University, priority 2022, published 2023).

Turning to `CNC(=O)Cc1ccc(-c2ccc3cccnc3n2)cc1` [7a], in experiment [1] (setting [5]), the “IL1β levels in cerebellum tissues” value is recorded as “significant reduction”, the “IL1β levels in hippocampal tissues” value is “significant reduction” and the “systemic IL1β levels in the serum” value is listed as “reduced”. Moreover, the “local IL1β levels in the gingiva” value in experiment [1] (mice with periodontitis, topical gel, mRNA around the ligature site) is recorded as “reduced”. Besides, the “periodontitis (μCT, distance between CEJ to alveolar bone crest)” value in experiment [1] (mice, ligature + F. nucleatum, oral topical gel formulation every other day) was “inhibited periodontitis”. Besides, in experiment [2] (setting [6]), the “IL1β expression in the cerebellum” value is “less induction”, the “IL1β expression in the hippocampus” value is “less induction”, the “TNFα expression in the cerebellum” value was “less induction” and the “TNFα expression in the cortex” value was “reduced”. Also, in experiment [2] (setting [6]), the “TNFα expression in the hippocampus” value was “less induction”. Also, in experiment [2] (oral gavage), the neuroinflammation entry was “reduced neuroinflammation”.
`O=C(O)CCC(=O)O` [succinate]: in experiment [3], the “dysbiosis in the oral microbiota (alpha and beta diversity)” value is listed as “increased”; the “serum IL-1β levels” value is “increased”. In addition, the “expression of virulence factors (Hemin receptor, Hemolysin, Hemolysin-related protein, Lys R Family transcriptional regulator)” value in experiment [4] (100 uM of succinate, RT-PCR) is recorded as “elevated”. In addition, in experiment [4] (media supplemented with succinate), the “F. nucleatum growth (optical density)” value was “elevated”.
